Among the test systems are SNB-19 CNS; HOP-62 NSCLC; U251 CNS; SF-268 CNS; IGROV1 ovarian; 786-0 renal; HT29 colon; SK-MEL-28 melanoma; TK-10 renal; LOX IMVI melanoma; NCI-H460 lung; MALME-3M melanoma; MDA-N; SK-OV-3 ovarian; UACC-62 melanoma; A549 NSCLC; K-562 leukemia; UACC-257 melanoma; CAKI-1 renal; RXF 393 renal.
What all share (test): NCI anticancer screen, dose series, 48 h

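Grown in 96-well plates, cells were treated for 48 hours with each compound at five concentrations. Insufficient inhibition: endpoint recorded as highest concentration tested. TGI: concentration producing complete growth inhibition.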

Consider `Cc1nn(-c2ccccc2)c2nc3ccc(Cl)cc3c(-c3ccccc3)c12`, for which the TGI in the assay on SNB-19 CNS, in the assay on HOP-62 NSCLC, with U251 CNS, in the assay with SF-268 CNS, in the assay with IGROV1 ovarian and with 786-0 renal was more than 100 µM each time. In addition, the TGI in the assay on HT29 colon, with SK-MEL-28 melanoma, with TK-10 renal, in the assay with LOX IMVI melanoma, in the assay on NCI-H460 lung and with MALME-3M melanoma was more than 100 µM each time. The TGI in the assay on MDA-N, in the assay with SK-OV-3 ovarian, in the assay on UACC-62 melanoma and in the assay on A549 NSCLC was more than 100 µM each time.
Consider `CC(=O)OC1[C@@H](OC(C)=O)CN(OCc2ccccc2)C[C@H]1OC(C)=O` (stereo partly specified), for which the TGI in the assay on SNB-19 CNS, in the assay on K-562 leukemia, with HOP-62 NSCLC, in the assay on U251 CNS, in the assay with SF-268 CNS and in the assay with IGROV1 ovarian was more than 100 µM in each case. Also, the TGI in the assay with 786-0 renal, in the assay on HT29 colon, in the assay with SK-MEL-28 melanoma, in the assay with UACC-257 melanoma, with TK-10 renal and in the assay on LOX IMVI melanoma was more than 100 µM throughout. Also, the TGI is more than 100 µM in the assay with CAKI-1 renal; more than 100 µM in the assay with NCI-H460 lung; more than 100 µM in the assay on MDA-N; 76.4 µM in the assay with SK-OV-3 ovarian; more than 100 µM in the assay on RXF 393 renal; more than 100 µM in the assay on UACC-62 melanoma. This compound also showed a TGI in the assay with A549 NSCLC of more than 100 µM.
Turning to `NC(=O)C1N=NSC1NC(=O)c1ccc([N+](=O)[O-])cc1` (stereo unspecified), the TGI with SNB-19 CNS, with K-562 leukemia, with HOP-62 NSCLC, in the assay on U251 CNS, in the assay with SF-268 CNS and in the assay with IGROV1 ovarian was more than 100 µM in each case. The TGI in the assay on 786-0 renal, with HT29 colon, in the assay on SK-MEL-28 melanoma, with UACC-257 melanoma, in the assay with TK-10 renal and in the assay with CAKI-1 renal was more than 100 µM in each case. Also, the TGI in the assay with NCI-H460 lung, in the assay with MALME-3M melanoma, with MDA-N, in the assay on SK-OV-3 ovarian, in the assay on RXF 393 renal and in the assay on UACC-62 melanoma was more than 100 µM in each case. This compound also gave a TGI in the assay on A549 NSCLC of more than 100 µM.
Regarding `CC(=O)OC1[C@H](n2ccnc2)C[C@H]2[C@@H]3CC=C4CC(N5CCCC5)CC[C@]4(C)[C@H]3CC[C@]12C` (stereo partly specified), the TGI in the assay with SNB-19 CNS, in the assay on K-562 leukemia, in the assay on U251 CNS, with SF-268 CNS, in the assay with IGROV1 ovarian and in the assay on 786-0 renal was more than 100 µM in each case. Further, the TGI was more than 100 µM in the assay on HT29 colon; 60.4 µM in the assay with SK-MEL-28 melanoma; 55.3 µM with UACC-257 melanoma; more than 100 µM with TK-10 renal; 38.1 µM in the assay with LOX IMVI melanoma; more than 100 µM with CAKI-1 renal. Further, the TGI in the assay with NCI-H460 lung is more than 100 µM; with MDA-N it was more than 100 µM; in the assay on RXF 393 renal it was 43.7 µM; in the assay with UACC-62 melanoma, 82.3 µM; in the assay with A549 NSCLC, more than 100 µM.
Consider `Cc1nc2ccccc2n1Cc1nnc2n1N=C(c1ccccc1)CS2`, for which the TGI was more than 100 µM in the assay on SNB-19 CNS; more than 100 µM in the assay on HOP-62 NSCLC; more than 100 µM in the assay with U251 CNS; more than 100 µM in the assay with SF-268 CNS; 20.1 µM with IGROV1 ovarian; more than 100 µM in the assay on 786-0 renal. Besides, the TGI was more than 100 µM in the assay with HT29 colon; more than 100 µM with SK-MEL-28 melanoma; 65.3 µM with UACC-257 melanoma; more than 100 µM in the assay with TK-10 renal; more than 100 µM in the assay on CAKI-1 renal; more than 100 µM in the assay on NCI-H460 lung. Moreover, the TGI in the assay on MALME-3M melanoma is more than 100 µM; in the assay with MDA-N, more than 100 µM; in the assay with SK-OV-3 ovarian it was more than 100 µM; in the assay with UACC-62 melanoma, 99.4 µM; in the assay with A549 NSCLC it was more than 100 µM.
Consider `CCOC(=O)C1=C(C)NC(C)=C(C(=O)OCC)C1c1ccc(C)cc1`, for which the TGI in the assay with SNB-19 CNS, in the assay on K-562 leukemia, in the assay with HOP-62 NSCLC, in the assay with U251 CNS, with SF-268 CNS and with IGROV1 ovarian was more than 100 µM in each case. Further, the TGI is 45.8 µM with 786-0 renal; more than 100 µM in the assay on HT29 colon; more than 100 µM with SK-MEL-28 melanoma; more than 100 µM in the assay with UACC-257 melanoma; more than 100 µM with TK-10 renal; more than 100 µM in the assay with LOX IMVI melanoma. Further, the TGI is more than 100 µM in the assay with CAKI-1 renal; 48 µM in the assay with NCI-H460 lung; more than 100 µM in the assay with MDA-N; more than 100 µM in the assay with SK-OV-3 ovarian; 75.5 µM with RXF 393 renal; more than 100 µM in the assay with UACC-62 melanoma. In the assay with A549 NSCLC, this compound had a TGI of more than 100 µM.
In the case of `Cc1nc2ccccc2c(=O)n1/N=C/c1ccc(N(C)C)cc1`, the TGI in the assay on SNB-19 CNS, in the assay on HOP-62 NSCLC, in the assay on U251 CNS, in the assay with SF-268 CNS, in the assay with IGROV1 ovarian and in the assay with 786-0 renal was more than 100 µM each time. The TGI in the assay on HT29 colon, in the assay with SK-MEL-28 melanoma, with UACC-257 melanoma, in the assay with TK-10 renal, in the assay on LOX IMVI melanoma and in the assay with CAKI-1 renal was more than 100 µM throughout. The TGI in the assay on NCI-H460 lung, with MALME-3M melanoma, in the assay with MDA-N, in the assay with SK-OV-3 ovarian, with UACC-62 melanoma and in the assay on A549 NSCLC was more than 100 µM in each case.
As for `C=CCN1C[C@@H](C)N([C@@H](c2ccc(C(=O)N(CC)CC)cc2)c2cccc(OC)c2)C[C@@H]1C`, the TGI in the assay on SNB-19 CNS, with K-562 leukemia, in the assay on HOP-62 NSCLC, in the assay on U251 CNS, with SF-268 CNS and in the assay with IGROV1 ovarian was more than 100 µM in each case. The TGI in the assay with 786-0 renal, with HT29 colon, in the assay on SK-MEL-28 melanoma, in the assay with LOX IMVI melanoma, in the assay on CAKI-1 renal and with MALME-3M melanoma was more than 100 µM each time. Moreover, the TGI in the assay with MDA-N, in the assay on SK-OV-3 ovarian, in the assay on UACC-62 melanoma and in the assay on A549 NSCLC was more than 100 µM in each case.
